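In this assay, cells in 96-well plates receive the compound at five concentrations for 48 hours. Endpoints are linearly interpolated between the surrounding concentrations. GI50 = concentration required for 50% inhibition of growth.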 Activity calls are given as the source filed them. Rule as the data show it: active = GI50 up to about 1.1 µM and inactive = higher.
Legend:
Test in all cases: DTP human tumour cell line panel, 48 h
CAKI-1 = system: CAKI-1
786-0 = system: 786-0
A498 = system: A498
OVCAR-4 = system: OVCAR-4
SW-620 = system: SW-620
CCRF-CEM = system: CCRF-CEM
OVCAR-5 = system: OVCAR-5
RXF 393 = system: RXF 393
COLO 205 = system: COLO 205
SK-OV-3 = system: SK-OV-3
UO-31 = system: UO-31
EKVX = system: EKVX
SNB-19 = system: SNB-19
HOP-62 = system: HOP-62
UACC-62 = system: UACC-62
SK-MEL-5 = system: SK-MEL-5
HCT-15 = system: HCT-15
Malme-3M = system: Malme-3M
Hs-578T = system: Hs-578T
MDA-MB-435 = system: MDA-MB-435

| SMILES | GI50 (CAKI-1) | GI50 (786-0) | GI50 (A498) | GI50 (OVCAR-4) | GI50 (SW-620) | GI50 (CCRF-CEM) | GI50 (OVCAR-5) | GI50 (RXF 393) | GI50 (COLO 205) | GI50 (SK-OV-3) | GI50 (UO-31) | GI50 (EKVX) | GI50 (SNB-19) | GI50 (HOP-62) | GI50 (UACC-62) | GI50 (SK-MEL-5) | GI50 (HCT-15) | GI50 (Malme-3M) | GI50 (Hs-578T) | GI50 (MDA-MB-435) |
| --- | --- | --- | --- | --- | --- | --- | --- | --- | --- | --- | --- | --- | --- | --- | --- | --- | --- | --- | --- | --- |
| CC(=O)NC(CCCN(Cc1ccccc1)C(=O)NCCCl)C(=O)NCc1ccccc1 (centres undefined) | > 100 µM (inactive) | > 100 µM (inactive) | > 100 µM (inactive) | > 100 µM (inactive) | > 100 µM (inactive) | > 100 µM (inactive) | > 100 µM (inactive) | > 100 µM (inactive) | > 100 µM (inactive) | > 100 µM (inactive) | > 100 µM (inactive) | > 100 µM (inactive) | > 100 µM (inactive) | > 100 µM (inactive) | > 100 µM (inactive) | > 100 µM (inactive) | > 100 µM | > 100 µM (inactive) |  |  |
| Cc1ccc(S(=O)(=O)N/N=C(\c2nc3ccc(Cl)cc3nc2O)C(O)c2cccc([N+](=O)[O-])c2)cc1 (centres undefined) | > 100 µM (inactive) | > 100 µM (inactive) | > 100 µM (inactive) | > 100 µM (inactive) | > 100 µM (inactive) | 52.7 µM (inactive) | > 100 µM (inactive) | > 100 µM (inactive) | > 100 µM (inactive) | > 100 µM (inactive) | > 100 µM (inactive) | > 100 µM (inactive) | > 100 µM (inactive) | > 100 µM (inactive) | > 100 µM (inactive) | > 100 µM (inactive) | > 100 µM | > 100 µM (inactive) |  |  |
| C/C(=N\NC(=S)NC(C)C)c1nc2cccnc2[nH]1 | 18.2 µM (inactive) | 20.3 µM (inactive) | > 47.6 µM (inactive) | 6.15 µM (inactive) | 12.1 µM (inactive) | 2.88 µM (inactive) | 28.8 µM (inactive) | 33.8 µM (inactive) | 11 µM (inactive) | 12.7 µM (inactive) | 3.78 µM (inactive) | 13.5 µM (inactive) | 30.9 µM (inactive) | 18 µM (inactive) | 29.8 µM (inactive) | 13.1 µM (inactive) | 11.3 µM | 33.9 µM (inactive) | 23.9 µM (inactive) |  |
| COC(=N)C12C(N)=NC(OC)(OC)C1(C#N)C21C(=O)N(c2ccccc2)N=C1C (centres undefined) | > 100 µM (inactive) | > 100 µM (inactive) | > 100 µM (inactive) | > 100 µM (inactive) | > 100 µM (inactive) | 36.2 µM (inactive) | > 100 µM (inactive) | > 100 µM (inactive) | > 100 µM (inactive) | > 100 µM (inactive) | > 100 µM (inactive) | > 100 µM (inactive) | > 100 µM (inactive) | > 100 µM (inactive) | > 100 µM (inactive) |  | > 100 µM | > 100 µM (inactive) |  | > 100 µM (inactive) |
| C=C(C)CCC(O)[C@](C)(O)[C@H]1[C@H](O)C[C@@]2(C)[C@@H]3CCc4c(cc(OC5OC(CO)C(O)C(O)C5O)c(O)c4C)C3(C)C(=O)C[C@]12C (some centres undefined) | > 100 µM (inactive) | > 100 µM (inactive) | > 100 µM (inactive) | > 100 µM (inactive) | > 100 µM (inactive) | > 100 µM (inactive) | > 100 µM (inactive) | > 100 µM (inactive) | > 100 µM (inactive) | > 100 µM (inactive) | > 100 µM (inactive) | > 100 µM (inactive) | > 100 µM (inactive) | > 100 µM (inactive) | > 100 µM (inactive) | > 10 µM (inactive) | > 100 µM | > 100 µM (inactive) |  | > 100 µM (inactive) |
| CCC12C=CCN3CC[C@]4(C(=C(C(=O)OC)[C@@H]1Nc1ccn(C5OC(COC(C)=O)C(OC(C)=O)C5OC(C)=O)c(=O)n1)Nc1ccccc14)C32 (some centres undefined) | 5.37 µM (inactive) | 4.54 µM (inactive) | 5.19 µM (inactive) | 1.72 µM (inactive) | 4.66 µM (inactive) | 4.59 µM (inactive) | 1.82 µM (inactive) | 3.12 µM (inactive) | 4.59 µM (inactive) | 4.93 µM (inactive) | 4.23 µM (inactive) | 5.81 µM (inactive) | 4.73 µM (inactive) | 4.93 µM (inactive) | 3.47 µM (inactive) | 4.5 µM (inactive) | 3.54 µM | 4.78 µM (inactive) |  |  |
| O=C1/C(=C/c2ccc(O)c(O)c2)CC/C1=C\c1ccc(O)c(O)c1 | 8.17 µM (inactive) | 3.83 µM (inactive) | 17 µM (inactive) | 5.33 µM (inactive) | 14 µM (inactive) | 1.65 µM (inactive) | > 42.2 µM (inactive) | 3.25 µM (inactive) | 16.2 µM (inactive) | 12.1 µM (inactive) | 2.29 µM (inactive) | 10.7 µM (inactive) | 7.11 µM (inactive) | 7.11 µM (inactive) | 3.79 µM (inactive) | 4.03 µM (inactive) | 7.16 µM | > 29.8 µM (inactive) |  | 4.68 µM (inactive) |

— ChEMBL document CHEMBL1201862, “PubChem BioAssay data set” (2004)
